According to ChEMBL document CHEMBL2385026, “Identification of C-2 hydroxyethyl imidazopyrrolopyridines as potent JAK1 inhibitors with favorable physicochemical properties and high selectivity over JAK2” (J Med Chem, 2013):
≈ marks a conversion by molar mass, not a printed value.

What was measured:
[1] = target: T1, Tyrosine-protein kinase JAK1 (Homo sapiens, UniProt P23458)
[2] = target: T2, Cytochrome P450 1A2 (Homo sapiens, UniProt P05177); experiment: Reversible inhibition of CYP1A2 in human liver microsomes using phenacetin as substrate by LC/MS/MS analysis; format: ADME, Microsome
T2 sequence (P05177 whole entry): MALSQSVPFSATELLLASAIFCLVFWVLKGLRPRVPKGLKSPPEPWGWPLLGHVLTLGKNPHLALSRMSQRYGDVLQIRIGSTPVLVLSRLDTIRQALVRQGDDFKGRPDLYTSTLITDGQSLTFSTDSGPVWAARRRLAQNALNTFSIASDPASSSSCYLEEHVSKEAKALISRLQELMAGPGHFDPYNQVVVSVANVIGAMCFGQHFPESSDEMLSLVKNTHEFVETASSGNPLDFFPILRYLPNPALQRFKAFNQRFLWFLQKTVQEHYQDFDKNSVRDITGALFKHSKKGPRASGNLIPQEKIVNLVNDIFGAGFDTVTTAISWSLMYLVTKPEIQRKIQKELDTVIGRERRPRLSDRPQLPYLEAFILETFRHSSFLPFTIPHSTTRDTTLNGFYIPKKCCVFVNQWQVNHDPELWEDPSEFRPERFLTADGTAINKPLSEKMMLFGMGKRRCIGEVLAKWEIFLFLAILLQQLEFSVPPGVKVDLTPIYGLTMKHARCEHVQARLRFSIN

[3] = Clearance in Beagle dog at 0.4 mg/kg, iv by LC/MS/MS analysis; format: ADME, organism-based, Canis lupus familiaris; set-up: dose 0.4 mg/kg, route intravenous; conditions: in vivo
[4] = AUC in Sprague-Dawley rat at 2 mg/kg, po by LC/MS/MS analysis; format: ADME, organism-based; set-up: dose 2 mg/kg, route oral; conditions: plasma
[5] = tested on: Canis familiaris; experiment: (§1) Oral bioavailability in Beagle dog at 2 mg/kg by LC/MS/MS analysis; format: ADME, organism-based, Canis lupus familiaris; conditions: in vivo
[6] = target: Cytochrome P450 2D6 (Homo sapiens, UniProt P10635)
Sequence of Cytochrome P450 2D6 (P10635 whole entry): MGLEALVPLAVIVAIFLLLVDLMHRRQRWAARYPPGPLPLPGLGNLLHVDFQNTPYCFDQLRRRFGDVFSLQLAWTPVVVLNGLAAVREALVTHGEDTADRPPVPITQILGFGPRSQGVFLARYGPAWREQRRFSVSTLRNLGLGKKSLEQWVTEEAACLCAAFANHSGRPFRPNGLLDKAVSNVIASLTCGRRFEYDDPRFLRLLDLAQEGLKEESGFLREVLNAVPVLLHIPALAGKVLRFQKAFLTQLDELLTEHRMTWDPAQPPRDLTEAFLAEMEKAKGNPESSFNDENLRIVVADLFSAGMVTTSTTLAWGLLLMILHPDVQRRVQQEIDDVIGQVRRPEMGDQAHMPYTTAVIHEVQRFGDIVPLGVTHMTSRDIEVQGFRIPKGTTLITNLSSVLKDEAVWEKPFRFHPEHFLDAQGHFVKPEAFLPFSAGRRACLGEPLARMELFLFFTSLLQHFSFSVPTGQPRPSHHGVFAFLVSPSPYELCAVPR

[7] = target: T3, Cytochrome P450 3A4 (Homo sapiens, UniProt P08684); experiment: Reversible inhibition of CYP3A4 in human liver microsomes using testosterone as substrate by LC/MS/MS analysis; format: ADME, Microsome
T3 sequence (P08684 whole entry): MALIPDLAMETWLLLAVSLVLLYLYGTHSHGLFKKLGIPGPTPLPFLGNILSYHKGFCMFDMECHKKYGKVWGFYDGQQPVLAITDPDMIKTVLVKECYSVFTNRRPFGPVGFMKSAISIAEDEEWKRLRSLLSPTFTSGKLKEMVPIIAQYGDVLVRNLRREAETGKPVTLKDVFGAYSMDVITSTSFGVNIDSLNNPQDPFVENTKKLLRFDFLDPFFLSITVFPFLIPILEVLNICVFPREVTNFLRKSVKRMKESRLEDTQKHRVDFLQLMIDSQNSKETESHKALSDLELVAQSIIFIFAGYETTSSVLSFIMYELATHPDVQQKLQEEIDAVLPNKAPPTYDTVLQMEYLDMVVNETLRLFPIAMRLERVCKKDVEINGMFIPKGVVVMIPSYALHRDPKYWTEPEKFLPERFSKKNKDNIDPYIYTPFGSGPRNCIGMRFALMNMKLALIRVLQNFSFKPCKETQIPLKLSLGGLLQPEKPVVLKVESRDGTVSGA

[8] = Plasma protein binding in cynomolgus monkey; format: ADME, cell-free, Macaca fascicularis; conditions: read-out: PPB (converted)
[9] = Cmax in Sprague-Dawley rat at 2 mg/kg, po by LC/MS/MS analysis; format: ADME, organism-based; set-up: dose 2 mg/kg, route oral; conditions: in vivo
[10] = Plasma protein binding in dog; format: ADME, cell-free, Canis lupus familiaris; conditions: read-out: PPB (converted)
[11] = Half life in Beagle dog at 0.4 mg/kg, iv by LC/MS/MS analysis; format: ADME, organism-based, Canis lupus familiaris; set-up: dose 0.4 mg/kg, route intravenous; conditions: in vivo
[12] = target: Tyrosine-protein kinase JAK3 (Homo sapiens, UniProt P52333)
[13] = target: T1, Tyrosine-protein kinase JAK1; remark: listed apart in the source
[14] = AUC in Beagle dog at 2 mg/kg, po by LC/MS/MS analysis; format: ADME, organism-based, Canis lupus familiaris; set-up: dose 2 mg/kg, route oral; conditions: plasma
[15] = target: T3, Cytochrome P450 3A4; experiment: Reversible inhibition of CYP3A4 in human liver microsomes using midazolam as substrate by LC/MS/MS analysis; format: ADME, Microsome
[16] = target: Cytochrome P450 2C19 (Homo sapiens, UniProt P33261)
Sequence of Cytochrome P450 2C19 (P33261 whole entry): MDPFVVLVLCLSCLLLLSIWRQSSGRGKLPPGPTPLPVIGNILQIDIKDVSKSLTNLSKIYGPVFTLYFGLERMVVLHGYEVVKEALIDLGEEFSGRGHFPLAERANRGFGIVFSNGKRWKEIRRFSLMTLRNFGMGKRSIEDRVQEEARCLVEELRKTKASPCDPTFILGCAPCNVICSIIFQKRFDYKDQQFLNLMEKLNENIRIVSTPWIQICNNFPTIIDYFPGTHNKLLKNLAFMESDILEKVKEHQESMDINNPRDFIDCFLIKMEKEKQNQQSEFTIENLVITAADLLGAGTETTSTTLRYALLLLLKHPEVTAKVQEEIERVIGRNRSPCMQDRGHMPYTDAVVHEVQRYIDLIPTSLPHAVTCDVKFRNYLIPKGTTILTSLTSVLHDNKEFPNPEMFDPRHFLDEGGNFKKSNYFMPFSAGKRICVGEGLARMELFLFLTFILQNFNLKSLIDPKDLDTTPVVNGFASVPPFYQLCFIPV

[17] = (§2) Oral bioavailability in Sprague-Dawley rat at 2 mg/kg by LC/MS/MS analysis; format: ADME, organism-based; conditions: Sprague-Dawley, in vivo
[18] = target: T4, Non-receptor tyrosine-protein kinase TYK2 (Homo sapiens, UniProt P29597)
T4 sequence (P29597 whole entry): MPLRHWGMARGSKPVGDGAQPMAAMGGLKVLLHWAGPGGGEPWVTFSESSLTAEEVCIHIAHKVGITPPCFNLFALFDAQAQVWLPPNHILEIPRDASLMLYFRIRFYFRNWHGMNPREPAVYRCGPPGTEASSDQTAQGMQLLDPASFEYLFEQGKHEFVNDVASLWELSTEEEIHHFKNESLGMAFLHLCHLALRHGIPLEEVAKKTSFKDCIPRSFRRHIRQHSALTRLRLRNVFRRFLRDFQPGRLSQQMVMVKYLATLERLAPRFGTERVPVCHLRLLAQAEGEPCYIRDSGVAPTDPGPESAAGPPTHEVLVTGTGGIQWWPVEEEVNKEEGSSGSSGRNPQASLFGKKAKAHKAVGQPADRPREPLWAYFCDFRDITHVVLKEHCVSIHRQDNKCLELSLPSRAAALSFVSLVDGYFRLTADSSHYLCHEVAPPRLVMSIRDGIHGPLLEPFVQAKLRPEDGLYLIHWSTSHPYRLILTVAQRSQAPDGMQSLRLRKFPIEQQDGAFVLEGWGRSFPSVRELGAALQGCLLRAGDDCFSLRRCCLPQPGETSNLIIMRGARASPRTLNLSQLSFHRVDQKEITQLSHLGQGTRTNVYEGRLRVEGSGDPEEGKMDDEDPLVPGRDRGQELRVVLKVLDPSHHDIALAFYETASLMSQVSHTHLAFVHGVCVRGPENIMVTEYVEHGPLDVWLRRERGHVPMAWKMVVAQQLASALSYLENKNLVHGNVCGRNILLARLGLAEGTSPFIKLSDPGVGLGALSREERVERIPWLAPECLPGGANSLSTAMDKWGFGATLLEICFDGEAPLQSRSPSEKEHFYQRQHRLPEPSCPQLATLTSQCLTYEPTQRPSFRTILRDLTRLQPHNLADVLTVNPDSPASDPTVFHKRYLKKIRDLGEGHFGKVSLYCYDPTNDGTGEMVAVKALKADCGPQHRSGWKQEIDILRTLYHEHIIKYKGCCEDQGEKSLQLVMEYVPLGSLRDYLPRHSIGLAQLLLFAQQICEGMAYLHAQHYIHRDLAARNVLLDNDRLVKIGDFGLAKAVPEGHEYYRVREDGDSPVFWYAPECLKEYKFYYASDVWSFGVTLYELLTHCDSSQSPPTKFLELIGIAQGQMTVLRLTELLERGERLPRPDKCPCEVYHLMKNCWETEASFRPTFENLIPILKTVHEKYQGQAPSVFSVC

[19] = Apparent permeability across apical to basolateral side in dog MDCK cells; format: ADME, cell-based, Canis lupus familiaris
[20] = target: T4, Non-receptor tyrosine-protein kinase TYK2; remark: listed apart in the source
[21] = Thermodynamic solubility in aqueous buffer at pH 7.4; format: physicochemical; conditions: read-out: Therm_solubility
[22] = Apparent permeability across basolateral to apical side in dog MDCK cells; format: ADME, cell-based, Canis lupus familiaris
[23] = Hepatic clearance in human hepatocytes after 1 to 4 hrs by LC/MS/MS analysis; format: ADME, cell-based, Liver, Hepatocyte
[24] = Metabolic stability in rat hepatocytes assessed as hepatic clearance; format: ADME, cell-based, Liver, Hepatocyte
[25] = Half life in Sprague-Dawley rat at 0.4 mg/kg, iv by LC/MS/MS analysis; format: ADME, organism-based; set-up: dose 0.4 mg/kg, route intravenous; conditions: in vivo
[26] = Hepatic clearance in human liver microsomes by LC/MS/MS analysis; format: ADME, Microsome
[27] = Clearance in Sprague-Dawley rat at 0.4 mg/kg, iv by LC/MS/MS analysis; format: ADME, organism-based; set-up: dose 0.4 mg/kg, route intravenous; conditions: in vivo
[28] = Metabolic stability in monkey hepatocytes assessed as hepatic clearance; format: ADME, cell-based, Macaca mulatta, Liver, Hepatocyte; conditions: rhesus monkey
[29] = Metabolic stability in dog hepatocytes assessed as hepatic clearance; format: ADME, cell-based, Canis lupus familiaris, Liver, Hepatocyte
[30] = Plasma protein binding in rat; format: ADME, cell-free; conditions: read-out: PPB (converted)
[31] = target: T1, Tyrosine-protein kinase JAK1; remark: listed apart in the source
[32] = Thermodynamic solubility in aqueous buffer at pH 2; format: physicochemical; conditions: read-out: Therm_solubility
[33] = Cmax in Beagle dog at 2 mg/kg, po by LC/MS/MS analysis; format: ADME, organism-based, Canis lupus familiaris; set-up: dose 2 mg/kg, route oral; conditions: in vivo
[34] = target: Cytochrome P450 2C9 (Homo sapiens, UniProt P11712)
Sequence of Cytochrome P450 2C9 (P11712 whole entry): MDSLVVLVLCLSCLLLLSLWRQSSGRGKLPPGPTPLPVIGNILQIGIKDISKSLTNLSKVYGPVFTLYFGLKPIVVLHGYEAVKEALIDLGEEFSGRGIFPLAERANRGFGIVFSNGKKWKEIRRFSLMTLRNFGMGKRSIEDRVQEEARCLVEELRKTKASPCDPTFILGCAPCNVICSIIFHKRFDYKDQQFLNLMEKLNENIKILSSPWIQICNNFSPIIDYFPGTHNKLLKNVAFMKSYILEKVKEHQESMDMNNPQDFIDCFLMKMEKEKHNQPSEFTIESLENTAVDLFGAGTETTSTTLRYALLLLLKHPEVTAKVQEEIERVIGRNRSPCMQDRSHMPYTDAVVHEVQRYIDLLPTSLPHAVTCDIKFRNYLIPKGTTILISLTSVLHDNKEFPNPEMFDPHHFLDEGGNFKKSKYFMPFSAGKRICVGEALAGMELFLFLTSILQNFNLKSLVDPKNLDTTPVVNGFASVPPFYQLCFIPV

[35] = Clearance in cynomolgus monkey at 0.4 mg/kg, iv by LC/MS/MS analysis; format: ADME, organism-based, Macaca fascicularis; set-up: dose 0.4 mg/kg, route intravenous; conditions: in vivo
[36] = Half life in cynomolgus monkey at 0.4 mg/kg, iv by LC/MS/MS analysis; format: ADME, organism-based, Macaca fascicularis; set-up: dose 0.4 mg/kg, route intravenous; conditions: in vivo
[37] = as §1; format: ADME, organism-based, Canis lupus familiaris; conditions: Beagle, in vivo
[38] = AUC in cynomolgus monkey at 2 mg/kg, po by LC/MS/MS analysis; format: ADME, organism-based, Macaca fascicularis; set-up: dose 2 mg/kg, route oral; conditions: plasma
[39] = Cmax in cynomolgus monkey at 2 mg/kg, po by LC/MS/MS analysis; format: ADME, organism-based, Macaca fascicularis; set-up: dose 2 mg/kg, route oral; conditions: in vivo
[40] = tested on: Rattus norvegicus; experiment: as §2; format: ADME, organism-based; conditions: in vivo
[41] = target: Voltage-gated inwardly rectifying potassium channel KCNH2 (Homo sapiens, UniProt Q12809)
[42] = Oral bioavailability in cynomolgus monkey at 2 mg/kg by LC/MS/MS analysis; format: ADME, organism-based, Macaca fascicularis; conditions: in vivo

T1 sequence (P23458 whole entry): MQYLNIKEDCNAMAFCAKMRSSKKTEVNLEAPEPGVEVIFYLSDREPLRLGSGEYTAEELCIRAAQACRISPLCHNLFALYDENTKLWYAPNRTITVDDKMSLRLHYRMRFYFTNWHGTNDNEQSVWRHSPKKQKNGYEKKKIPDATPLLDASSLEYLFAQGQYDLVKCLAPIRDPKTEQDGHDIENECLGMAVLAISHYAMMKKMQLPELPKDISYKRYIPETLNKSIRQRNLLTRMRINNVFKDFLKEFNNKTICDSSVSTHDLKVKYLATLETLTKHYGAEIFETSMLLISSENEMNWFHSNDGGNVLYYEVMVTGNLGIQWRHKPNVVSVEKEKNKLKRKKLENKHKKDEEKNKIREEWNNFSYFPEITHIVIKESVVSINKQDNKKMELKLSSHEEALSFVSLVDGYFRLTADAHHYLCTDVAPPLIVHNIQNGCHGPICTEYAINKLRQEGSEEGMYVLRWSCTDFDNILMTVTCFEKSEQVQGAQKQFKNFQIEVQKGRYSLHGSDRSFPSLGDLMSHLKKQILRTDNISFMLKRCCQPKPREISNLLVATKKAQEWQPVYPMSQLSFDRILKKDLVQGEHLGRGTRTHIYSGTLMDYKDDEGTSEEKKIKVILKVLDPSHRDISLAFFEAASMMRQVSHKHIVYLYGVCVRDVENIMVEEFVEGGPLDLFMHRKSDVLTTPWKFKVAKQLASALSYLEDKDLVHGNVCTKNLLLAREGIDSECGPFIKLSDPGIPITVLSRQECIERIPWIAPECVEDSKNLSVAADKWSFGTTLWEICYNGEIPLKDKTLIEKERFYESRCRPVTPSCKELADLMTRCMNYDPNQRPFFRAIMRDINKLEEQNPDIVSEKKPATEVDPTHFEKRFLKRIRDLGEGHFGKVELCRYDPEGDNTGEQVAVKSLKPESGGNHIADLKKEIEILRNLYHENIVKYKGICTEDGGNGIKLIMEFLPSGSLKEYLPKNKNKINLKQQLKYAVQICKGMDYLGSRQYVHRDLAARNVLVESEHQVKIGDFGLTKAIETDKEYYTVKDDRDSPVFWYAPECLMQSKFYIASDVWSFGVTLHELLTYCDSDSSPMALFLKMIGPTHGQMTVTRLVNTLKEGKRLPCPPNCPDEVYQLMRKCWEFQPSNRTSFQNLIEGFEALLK

| EC50 [1] [nM] | IC50 [2] [µM] | clearance [3] [mL/min/kg] | AUC [4] [µM·h] | IC50 [6] [µM] | IC50 [7] [µM] | fraction unbound [8] | Cmax [9] [µM] | fraction unbound [10] | half-life [11] [min] | Ki [13] [nM] | AUC [14] [µM·h] | IC50 [15] [µM] | IC50 [16] [µM] | Ki [18] [nM] | Papp A→B [19] [×10⁻⁶ cm/s] | EC50 [20] [nM] | solubility thermodynamic [21] [µM] | Papp B→A [22] [×10⁻⁶ cm/s] | CLhep predicted [23] [mL/min/kg] | Structure (SMILES) | further results |
| --- | --- | --- | --- | --- | --- | --- | --- | --- | --- | --- | --- | --- | --- | --- | --- | --- | --- | --- | --- | --- | --- |
| 28 | > 10 | 17 | 1.3 | > 10 | > 10 | 0.3 | 0.93 | 0.37 | 108 | 0.1 | 11.2 | 8.8 | > 10 | 0.4 | 3.5 | 100 | 130 (≈ 42 µg/mL) | 4.9 | 6.8 | C[C@@H](O)c1nc2cnc3[nH]ccc3c2n1[C@H]1CC[C@H](CC#N)CC1 | F [5]: 183%; Ki [12]: 5.9 nM; bioavailability [17]: 49%; CLhep predicted [24]: 15 mL/min/kg; half-life [25]: 30 min; CLhep predicted [26]: 5.2 mL/min/kg; clearance [27]: 38 mL/min/kg; CLhep predicted [28]: 25 mL/min/kg; CLhep predicted [29]: 12 mL/min/kg; fraction unbound [30]: 0.37; EC50 [31]: 5.7 nM; solubility thermodynamic [32]: > 4 mM; Cmax [33]: 2.5 µM; IC50 [34]: > 10 µM |
| 180 | > 10 | 2.1 | 10.7 | > 10 | > 10 | 0.46 | 5.2 | 0.39 | 342 | 2.8 | 65.7 | > 10 | > 10 | 31 | 7.6 | > 5800 | > 4000 | 8.6 | 1.9 | C[C@@H](O)c1nc2cnc3[nH]ccc3c2n1[C@H]1CCCOC1 | clearance [35]: 19 mL/min/kg; half-life [36]: 66 min; bioavailability [37]: 111%; AUC [38]: 4.3 µM·h; Cmax [39]: 1800 nM; F [40]: 197%; CLhep predicted [24]: 2.3 mL/min/kg; half-life [25]: 90 min; CLhep predicted [26]: 2 mL/min/kg; clearance [27]: 22 mL/min/kg; IC50 [41]: > 100 µM; CLhep predicted [28]: 21 mL/min/kg; bioavailability [42]: 70%; CLhep predicted [29]: 4.9 mL/min/kg; fraction unbound [30]: 0.61; EC50 [31]: 110 nM; solubility thermodynamic [32]: > 4 mM; Cmax [33]: 9.8 µM; IC50 [34]: > 10 µM |
